The values below come from publication PMC7948503, “Optimization of a peptide ligand for the adhesion GPCR ADGRG2 provides a potent tool to explore receptor biology” (The Journal of Biological Chemistry, 2020).

Holding throughout (type): cell-based
The target in one experiment is T1, ADGRG2-ΔGPS-β (Mus musculus, UniProt Q8CJ12).
T1 construct: the entire ECD (including the entire GPS motif) was removed (ADGRG2-ΔGPS-β); expressed in transfected cells; host or cells: HEK293
The experiment in a line: GloSensor cAMP assay, HEK293 transfected with ADGRG2-ΔGPS-β. An excerpt:
(§1) Wildtype ADGRG2 full-length (ADGRG2-FL) was cloned from mouse total cDNA libraries using the following primers: forward, […]; reverse, […], and then ADGRG2-FL, ADGRG2 C-terminal truncation mutant (ADGRG2-β), and ADGRG2-ΔGPS-β (the entire ECD of ADGRG2 was deleted) were subcloned into the pcDNA3.1 expression vector. The ADGRG2-ΔGPS-β mutants (T610A, Y611A, C614A, S661A, W662A, I663A, L665A, Y666A，N667A, F671A, L679A, L683A, I730A, V731A, F741A, F747A, W757A, I758A, N759A, S760A, V762A, F764A, Y765A, V768A, V769A, F772A, V774A, W824A, F826A, F828A, F829A, V834A, V836A, F838A, M839A, I844A, F845A) were generated using a QuikChange Mutagenesis Kit (Stratagene). All mutations were verified by DNA sequencing.
Human embryonic kidney 293 (HEK293) cells were maintained in Dulbecco’s modified Eagle’s medium supplemented with 10% fetal bovine serum, penicillin (100 IU/ml), and streptomycin (100 μg/ml) as described ([6], [38]). For receptor or other protein expression, plasmids carrying the desired genes were transfected into cells using Lipofectamine 2000 (Invitrogen).
(§2) The Glosensor cAMP assay was performed as described ([6], [39], [40]). HEK293 cells were transfected with the GloSensor plasmid and the desired expression plasmids in 24-well dishes. Twenty-four hours after transfection, the cells were plated on 96-well plates at a cell density of 20,000 cells/well. The cells were maintained in Dulbecco’s modified Eagle’s medium for another 24 h, washed with PBS, and then incubated with 100 μl of solution containing 10% fetal bovine serum, 2% (v/v) GloSensor cAMP reagent, and 88% CO2-independent medium in each well for 2 h. The cAMP signal was examined using a luminescence counter (Mithras LB 940).

The target of a further experiment is T2, ADGRG2-ΔGPS-β F764A (Mus musculus, UniProt Q8CJ12, F778A).
T2 construct: expressed in transfected cells; host or cells: HEK293
The experiment can be described thus: GloSensor cAMP assay. The conditions noted are these: mutant F764A; HEK293, cAMP Glosensor.
From the text: as §1, §2
A general note: Cyclic AMP is a second messenger, typically raised through Gs and lowered through Gi signalling.

For a further experiment, the target named is T3, ADGRG2-ΔGPS-β F828A (Mus musculus, UniProt Q8CJ12, F842A).
T3 construct: expressed in transfected cells; host or cells: HEK293
The experiment can be described thus: GloSensor cAMP assay. To be noted: mutant F828A; HEK293, cAMP Glosensor.
From the text: as §1, §2

The next experiment has as its target T4, ADGRG2-ΔGPS-β F829A (Mus musculus, UniProt Q8CJ12, F843A).
T4 construct: expressed in transfected cells; host or cells: HEK293
The experiment in a line: GloSensor cAMP assay. To be noted: mutant F829A; HEK293, cAMP Glosensor.
From the text: as §1, §2

A further experiment addresses T5, ADGRG2-ΔGPS-β F845A (Mus musculus, UniProt Q8CJ12, F859A).
T5 construct: expressed in transfected cells; host or cells: HEK293
The experiment in a line: GloSensor cAMP assay. To be noted: mutant F845A; HEK293, cAMP Glosensor.
From the text: as §1, §2

The next experiment deals with T6, ADGRG2-ΔGPS-β I844A (Mus musculus, UniProt Q8CJ12, I858A).
T6 construct: expressed in transfected cells; host or cells: HEK293
The experiment in a line: GloSensor cAMP assay. The conditions noted are these: mutant I844A; HEK293, cAMP Glosensor.
From the text: as §1, §2

In a further experiment the target is T7, ADGRG2-ΔGPS-β L679A (Mus musculus, UniProt Q8CJ12, L693A).
T7 construct: expressed in transfected cells; host or cells: HEK293
The experiment can be described thus: GloSensor cAMP assay. To be noted: mutant L679A; HEK293, cAMP Glosensor.
From the text: as §1, §2

The target in another experiment is T8, ADGRG2-ΔGPS-β M839A (Mus musculus, UniProt Q8CJ12, M853A).
T8 construct: expressed in transfected cells; host or cells: HEK293
The experiment in a line: GloSensor cAMP assay. The conditions noted are these: mutant M839A; HEK293, cAMP Glosensor.
From the text: as §1, §2

In another experiment the target is T9, ADGRG2-ΔGPS-β N667A (Mus musculus, UniProt Q8CJ12, N681A).
T9 construct: expressed in transfected cells; host or cells: HEK293
The experiment in a line: GloSensor cAMP assay. The conditions noted are these: mutant N667A; HEK293, cAMP Glosensor.
From the text: as §1, §2

Another experiment addresses T10, ADGRG2-ΔGPS-β S760A (Mus musculus, UniProt Q8CJ12, S774A).
T10 construct: expressed in transfected cells; host or cells: HEK293
The experiment can be described thus: GloSensor cAMP assay. To be noted: mutant S760A; HEK293, cAMP Glosensor.
From the text: as §1, §2

The next experiment concerns the target T11, ADGRG2-ΔGPS-β V731A (Mus musculus, UniProt Q8CJ12, V745A).
T11 construct: expressed in transfected cells; host or cells: HEK293
The experiment can be described thus: GloSensor cAMP assay. To be noted: mutant V731A; HEK293, cAMP Glosensor.
From the text: as §1, §2

The next experiment addresses T12, ADGRG2-ΔGPS-β V762A (Mus musculus, UniProt Q8CJ12, V776A).
T12 construct: expressed in transfected cells; host or cells: HEK293
The experiment can be described thus: GloSensor cAMP assay. The conditions noted are these: mutant V762A; HEK293, cAMP Glosensor.
From the text: as §1, §2

Another experiment deals with T13, ADGRG2-ΔGPS-β V768A (Mus musculus, UniProt Q8CJ12, V782A).
T13 construct: expressed in transfected cells; host or cells: HEK293
The experiment can be described thus: GloSensor cAMP assay. The conditions noted are these: mutant V768A; HEK293, cAMP Glosensor.
From the text: as §1, §2

Another experiment addresses T14, ADGRG2-ΔGPS-β V769A (Mus musculus, UniProt Q8CJ12, V783A).
T14 construct: expressed in transfected cells; host or cells: HEK293
The experiment in a line: GloSensor cAMP assay. The conditions noted are these: mutant V769A; HEK293, cAMP Glosensor.
From the text: as §1, §2

Another experiment has as its target T15, ADGRG2-ΔGPS-β V774A (Mus musculus, UniProt Q8CJ12, V788A).
T15 construct: expressed in transfected cells; host or cells: HEK293
The experiment in a line: GloSensor cAMP assay. The conditions noted are these: mutant V774A; HEK293, cAMP Glosensor.
From the text: as §1, §2

A further experiment concerns the target T16, ADGRG2-ΔGPS-β V834A (Mus musculus, UniProt Q8CJ12, V848A).
T16 construct: expressed in transfected cells; host or cells: HEK293
The experiment in a line: GloSensor cAMP assay. The conditions noted are these: mutant V834A; HEK293, cAMP Glosensor.
From the text: as §1, §2

For a further experiment, the target named is T17, ADGRG2-ΔGPS-β W824A (Mus musculus, UniProt Q8CJ12, W838A).
T17 construct: expressed in transfected cells; host or cells: HEK293
The experiment can be described thus: GloSensor cAMP assay. To be noted: mutant W824A; HEK293, cAMP Glosensor.
From the text: as §1, §2

The next experiment concerns the target T18, ADGRG2-ΔGPS-β Y611A (Mus musculus, UniProt Q8CJ12, Y625A).
T18 construct: expressed in transfected cells; host or cells: HEK293
The experiment can be described thus: GloSensor cAMP assay. To be noted: mutant Y611A; HEK293, cAMP Glosensor.
From the text: as §1, §2

Non-standard residues stand in square brackets, D forms with d. Residues, ends and D or L forms follow the SMILES beside them. Phe(4-Me) = Cc1ccc(C[C@H](N)C(=O)O)cc1

T1 sequence (Q8CJ12 618-1009 limits assumed, stated change not applied): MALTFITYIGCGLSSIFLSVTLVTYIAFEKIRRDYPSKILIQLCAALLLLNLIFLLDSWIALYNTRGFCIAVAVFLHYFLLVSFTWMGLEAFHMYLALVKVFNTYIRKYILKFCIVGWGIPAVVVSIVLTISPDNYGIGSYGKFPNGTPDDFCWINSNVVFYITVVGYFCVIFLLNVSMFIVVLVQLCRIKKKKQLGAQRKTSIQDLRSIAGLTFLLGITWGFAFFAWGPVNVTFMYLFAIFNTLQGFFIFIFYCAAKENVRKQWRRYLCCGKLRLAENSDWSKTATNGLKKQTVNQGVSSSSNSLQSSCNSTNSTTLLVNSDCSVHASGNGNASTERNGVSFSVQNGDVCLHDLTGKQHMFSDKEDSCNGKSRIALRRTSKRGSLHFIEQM
T4 sequence (Q8CJ12 614-1009 F843A): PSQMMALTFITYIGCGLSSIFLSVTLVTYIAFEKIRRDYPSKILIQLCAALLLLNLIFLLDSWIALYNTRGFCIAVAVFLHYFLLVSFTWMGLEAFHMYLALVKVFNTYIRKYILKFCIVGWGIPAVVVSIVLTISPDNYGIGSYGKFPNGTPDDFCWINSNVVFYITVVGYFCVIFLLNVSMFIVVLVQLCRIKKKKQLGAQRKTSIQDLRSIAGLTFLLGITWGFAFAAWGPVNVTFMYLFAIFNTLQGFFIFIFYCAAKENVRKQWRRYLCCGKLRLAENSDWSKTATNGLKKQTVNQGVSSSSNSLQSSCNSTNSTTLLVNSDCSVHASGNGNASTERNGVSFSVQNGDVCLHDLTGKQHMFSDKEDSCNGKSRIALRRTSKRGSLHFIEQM
T11 sequence (Q8CJ12 614-1009 V745A): as the sequence (Q8CJ12 614-1009 F843A) above, with V132A, A230F counted along it
T10 sequence (Q8CJ12 614-1009 S774A): as the sequence (Q8CJ12 614-1009 F843A) above, with S161A, A230F counted along it
T5 sequence (Q8CJ12 614-1009 F859A limits assumed): as the sequence (Q8CJ12 614-1009 F843A) above, with A230F, F246A counted along it
T18 sequence (Q8CJ12 614-1009 Y625A): as the sequence (Q8CJ12 614-1009 F843A) above, with Y12A, A230F counted along it
T6 sequence (Q8CJ12 614-1009 I858A): as the sequence (Q8CJ12 614-1009 F843A) above, with A230F, I245A counted along it
T13 sequence (Q8CJ12 614-1009 V782A): as the sequence (Q8CJ12 614-1009 F843A) above, with V169A, A230F counted along it
T8 sequence (Q8CJ12 614-1009 M853A): as the sequence (Q8CJ12 614-1009 F843A) above, with A230F, M240A counted along it
T14 sequence (Q8CJ12 614-1009 V783A): as the sequence (Q8CJ12 614-1009 F843A) above, with V170A, A230F counted along it
T7 sequence (Q8CJ12 614-1009 L693A): as the sequence (Q8CJ12 614-1009 F843A) above, with L80A, A230F counted along it
T12 sequence (Q8CJ12 614-1009 V776A): as the sequence (Q8CJ12 614-1009 F843A) above, with V163A, A230F counted along it
T3 sequence (Q8CJ12 614-1009 F842A): as the sequence (Q8CJ12 614-1009 F843A) above, with F229A, A230F counted along it
T9 sequence (Q8CJ12 614-1009 N681A): as the sequence (Q8CJ12 614-1009 F843A) above, with N68A, A230F counted along it
T17 sequence (Q8CJ12 614-1009 W838A): as the sequence (Q8CJ12 614-1009 F843A) above, with W225A, A230F counted along it
T16 sequence (Q8CJ12 614-1009 V848A): as the sequence (Q8CJ12 614-1009 F843A) above, with A230F, V235A counted along it
T2 sequence (Q8CJ12 614-1009 F778A): as the sequence (Q8CJ12 614-1009 F843A) above, with F165A, A230F counted along it
T15 sequence (Q8CJ12 614-1009 V788A limits assumed): as the sequence (Q8CJ12 614-1009 F843A) above, with V175A, A230F counted along it

As for `CC[C@H](C)[C@H](NC(=O)CNC(=O)[C@H](Cc1ccc(C)cc1)NC(=O)[C@H](CO)NC(=O)[C@@H](N)C(C)C)C(=O)N[C@@H](CC(C)C)C(=O)N[C@@H](CC(C)C)C(=O)N[C@@H](CC(=O)O)C(=O)N[C@@H](CC(C)C)C(=O)N[C@@H](CO)C(=O)N[C@@H](CCCNC(=N)N)C(=O)N[C@H](C(=O)N[C@@H](CO)C(=O)N[C@@H](CC(C)C)C(=O)N1CCC[C@H]1C(=O)O)[C@@H](C)O` [VPM-p15] (H-VS[Phe(4-Me)]GILLDLSRTSLP-OH), the EC50 at ADGRG2-ΔGPS-β (cAMP Glosensor, ADGRG2-ΔGPS-β, HEK293) is 1.41 ± 0.16 µM; at ADGRG2-ΔGPS-β (receptor WT (Table S4), HEK293, cAMP Glosensor) it was 1.06 µM; on ADGRG2-ΔGPS-β F764A, 0.938 µM; on ADGRG2-ΔGPS-β F828A, 3.88 µM; on ADGRG2-ΔGPS-β F829A, 1.16 µM; on ADGRG2-ΔGPS-β F845A, 3.21 µM. The EC50 is 12.9 µM on ADGRG2-ΔGPS-β I844A; 1.16 µM at ADGRG2-ΔGPS-β L679A; 1.72 µM on ADGRG2-ΔGPS-β M839A; 1.24 µM on ADGRG2-ΔGPS-β N667A; 1.95 µM at ADGRG2-ΔGPS-β S760A; 1.22 µM at ADGRG2-ΔGPS-β V731A. Besides, the EC50 came out at 2.35 µM on ADGRG2-ΔGPS-β V762A; 7.39 µM on ADGRG2-ΔGPS-β V768A; 1.69 µM at ADGRG2-ΔGPS-β V769A; 1.28 µM on ADGRG2-ΔGPS-β V774A; 1.14 µM at ADGRG2-ΔGPS-β V834A; 9.75 µM at ADGRG2-ΔGPS-β W824A. In addition, the response at ADGRG2-ΔGPS-β Y611A was half-maximal at 1.06 µM (EC50). The “EC50 compared with wildtype p15 or other mutants” value at ADGRG2-ΔGPS-β (concentration-response curves, cAMP Glosensor, ADGRG2-ΔGPS-β) is listed as “significant lower EC50 than other mutants”.

As a reminder, the EC50 is the midpoint of the concentration-response curve. Higher therefore signals a need for much substance.
